Experimental data from ChEMBL document CHEMBL1201862, “PubChem BioAssay data set” (2004).
Active and inactive are the calls of the source.

Tests used:
[1] = biological target: NADPH oxidase 1 (Homo sapiens, UniProt Q9Y5S8); type: functional, cell-based;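 note: Cell-based assay with luminescence read-out, IC50 derived from inhibitor dose-response curves; intracellular ROS from endogenous NOX1 in intact HT29 colon cancer cells; potency of inhibitors that lower the ROS luminescence signal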
[2] = inhibitors of intracellular T. cruzi replication, confirmation, NIH3T3 host cells, beta-gal luminescence (AID 2044); type: functional, cell-based;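 note: intracellular parasites grown in NIH/3T3 mouse fibroblasts as host cells; luminescent beta-galactosidase reporter signal from transgenic T. cruzi replicating inside host cells; inhibitors lower the luminescence signal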
[3] = HepG2 cell cytotoxicity, dose response, cytotoxicity control for Shn3 inhibitor project, CellTiter-Glo, cherry-picked (AID 624134); type: functional, cell-based
[4] = control 3'UTR Renilla luciferase suppression, dose response, counter-screen for Shn3 inhibitor project, cell-based, Clone20-Shn3RL, cherry-picked (AID 624133); type: functional
[5] = NIH-3T3 fibroblast cytotoxicity, dose response, cytotoxicity control, cell-based, fluorescence, Alamar Blue, secondary assay (AID 2327); type: functional;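 note: NIH-3T3 mouse fibroblasts cultured with fluconazole at 8 µg/mL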
[6] = inhibitors of SNCA 5'UTR-driven reporter translation, confirmation, H4 neuroglioma cells, luminescence (AID 1988); type: functional, cell-based
[7] = cells; type: functional, cell-based
[8] = Shn3 3'UTR reporter inhibitors, dose response, cell-based, Clone20 osteoblasts, firefly luciferase, cherry-picked (AID 624132); type: functional;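 note: firefly luciferase luminescence from reporter carrying the Shn3 3'UTR in osteoblasts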
[9] = inhibitors of firefly luciferase expression or activity, dose response, H4 neuroglioma cells, luminescence (AID 1990); type: functional, cell-based
[10] = biological target: T1, Heat shock factor protein 1 (Mus musculus, UniProt P38532); experiment: inhibition of MG132-induced HSE-luciferase signal, confirmation, cell-based, NIH3T3, luminescence, dose retest (AID 2382); type: functional;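 note: NIH3T3 fibroblasts with HSF1-driven luciferase reporter stressed by proteasome inhibitor MG132; luminescence from HSF1-driven luciferase expression after 8 hours of MG132 stress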
T1 sequence (P38532 whole entry): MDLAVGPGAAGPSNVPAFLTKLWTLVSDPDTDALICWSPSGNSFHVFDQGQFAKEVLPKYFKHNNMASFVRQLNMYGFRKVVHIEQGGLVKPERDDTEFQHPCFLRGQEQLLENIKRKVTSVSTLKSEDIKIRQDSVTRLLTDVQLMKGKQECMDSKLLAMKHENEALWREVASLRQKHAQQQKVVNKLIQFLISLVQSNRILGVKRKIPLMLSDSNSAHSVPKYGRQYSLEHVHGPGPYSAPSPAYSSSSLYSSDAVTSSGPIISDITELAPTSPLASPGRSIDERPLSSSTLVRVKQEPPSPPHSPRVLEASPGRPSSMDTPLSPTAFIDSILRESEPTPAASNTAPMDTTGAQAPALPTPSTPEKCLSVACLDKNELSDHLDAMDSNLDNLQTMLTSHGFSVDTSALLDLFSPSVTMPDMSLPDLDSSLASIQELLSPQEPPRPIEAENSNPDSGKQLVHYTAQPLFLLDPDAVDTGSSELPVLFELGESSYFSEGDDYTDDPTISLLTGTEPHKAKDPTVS

[11] = Luminescence Cell-Based Dose Response HTS to Identify Inhibitors of 5'UTR Stem-Loop Driven Prion Protein mRNA Translation in H4 Neuroglioblastoma Cells. [Related pubchem assays: 1827 (Project Summary), 1813 (Primary HTS)]; type: functional
[12] = cells; type: functional, cell-based; remark: listed apart in the source
[13] = biological target: Nonstructural protein 1 (Influenza A virus, UniProt Q194T2); type: functional, Influenza A virus (A/California/07/2009(H1N1))
Nonstructural protein 1, sequence (Q194T2 whole entry): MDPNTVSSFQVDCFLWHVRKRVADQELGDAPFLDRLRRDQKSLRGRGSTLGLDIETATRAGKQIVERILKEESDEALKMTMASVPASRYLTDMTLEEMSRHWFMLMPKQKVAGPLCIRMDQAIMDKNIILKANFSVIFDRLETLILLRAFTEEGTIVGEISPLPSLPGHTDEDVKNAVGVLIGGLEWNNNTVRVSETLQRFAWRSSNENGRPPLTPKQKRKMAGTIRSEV

[14] = C. albicans growth with fluconazole, confirmation, fluorescence, retest (AID 2467); type: functional, cell-based
[15] = biological target: T2, Mannose-6-phosphate isomerase (Homo sapiens, UniProt P34949); experiment: inhibitors of human PMI, primary screen, biochemical, fluorescence intensity, coupled assay (AID 1209)
T2 sequence (P34949 whole entry): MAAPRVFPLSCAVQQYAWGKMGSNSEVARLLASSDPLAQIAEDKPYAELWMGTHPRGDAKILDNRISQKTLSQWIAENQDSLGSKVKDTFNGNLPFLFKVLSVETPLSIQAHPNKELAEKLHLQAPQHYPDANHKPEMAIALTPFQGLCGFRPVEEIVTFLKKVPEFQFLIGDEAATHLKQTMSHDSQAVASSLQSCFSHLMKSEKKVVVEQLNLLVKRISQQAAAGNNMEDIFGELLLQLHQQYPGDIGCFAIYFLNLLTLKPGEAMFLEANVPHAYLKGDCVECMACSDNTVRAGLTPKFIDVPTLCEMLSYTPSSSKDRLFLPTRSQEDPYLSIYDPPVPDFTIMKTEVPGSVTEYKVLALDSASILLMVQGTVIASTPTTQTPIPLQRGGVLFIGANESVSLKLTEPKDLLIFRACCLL

[16] = tested on: INS1; experiment: beta cell apoptosis inhibitors, cytokine rescue, dose response, luminescence, retest (AID 449756); type: functional, cell-based; conditions: Rattus norvegicus;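 note: cell death triggered by IL-1 beta plus TNF-alpha plus IFN-gamma mixture; protective hits raise ATP signal compared with cytokine alone wells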
[17] = cytotoxicity toward NIH3T3 fibroblasts, dose response, counter-screen, cell-based, ATP luminescence, mouse fibroblasts (AID 2010); type: functional;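 note: cells exposed to compound for about 90 hours before reading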
[18] = growth suppression of beta-catenin-knockout colon cells, dose response, cell-based, HCT116, human colon tumor (AID 1045); type: functional;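 note: HCT116 colon tumor cells with beta catenin knocked out; cells exposed to compound for 60 hours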
[19] = growth suppression of PTEN-null colon cells, dose response, cell-based, HCT116 PTEN knockout (AID 1047); type: functional;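 note: HCT116 colon tumor cells with PTEN knocked out; cells exposed to compound for 60 hours before readout; potency for loss of cell viability measured by luminescence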
[20] = biological target: T1, Heat shock factor protein 1; experiment: HSF1 potentiators in luciferase reporter cells, confirmation, cell-based, NIH3T3, luminescence, dose retest (AID 435004); type: functional;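 note: stress induced by proteasome inhibitor MG132 added 30 min after compound; luciferase reporter driven by HSF1 response element in NIH3T3 cells; actives raise luminescence as potentiators of the MG132 stress response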
[21] = biological target: Serine/threonine-protein phosphatase PP1-alpha catalytic subunit (Homo sapiens, UniProt P62136); experiment: PP1 phosphatase inhibitors, dose response, biochemical, fluorescence (AID 2394)
Serine/threonine-protein phosphatase PP1-alpha catalytic subunit, sequence (P62136 whole entry): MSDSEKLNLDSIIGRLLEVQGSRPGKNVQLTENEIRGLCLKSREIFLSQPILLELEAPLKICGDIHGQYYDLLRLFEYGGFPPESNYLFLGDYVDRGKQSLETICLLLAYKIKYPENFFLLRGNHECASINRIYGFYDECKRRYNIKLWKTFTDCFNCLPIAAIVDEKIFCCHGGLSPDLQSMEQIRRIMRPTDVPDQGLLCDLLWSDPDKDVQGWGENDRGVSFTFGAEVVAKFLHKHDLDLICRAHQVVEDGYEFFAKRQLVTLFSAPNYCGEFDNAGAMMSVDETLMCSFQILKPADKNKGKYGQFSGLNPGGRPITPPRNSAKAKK

[22] = biological target: T3, Microphthalmia-associated transcription factor (Homo sapiens, UniProt O75030); experiment: TRPM1 promoter luciferase signal decrease, dose response, MITF inhibitor project, cell-based, SK-MEL-5, cherry-picked, set 3 (AID 493073); type: functional
T3 sequence (O75030 whole entry): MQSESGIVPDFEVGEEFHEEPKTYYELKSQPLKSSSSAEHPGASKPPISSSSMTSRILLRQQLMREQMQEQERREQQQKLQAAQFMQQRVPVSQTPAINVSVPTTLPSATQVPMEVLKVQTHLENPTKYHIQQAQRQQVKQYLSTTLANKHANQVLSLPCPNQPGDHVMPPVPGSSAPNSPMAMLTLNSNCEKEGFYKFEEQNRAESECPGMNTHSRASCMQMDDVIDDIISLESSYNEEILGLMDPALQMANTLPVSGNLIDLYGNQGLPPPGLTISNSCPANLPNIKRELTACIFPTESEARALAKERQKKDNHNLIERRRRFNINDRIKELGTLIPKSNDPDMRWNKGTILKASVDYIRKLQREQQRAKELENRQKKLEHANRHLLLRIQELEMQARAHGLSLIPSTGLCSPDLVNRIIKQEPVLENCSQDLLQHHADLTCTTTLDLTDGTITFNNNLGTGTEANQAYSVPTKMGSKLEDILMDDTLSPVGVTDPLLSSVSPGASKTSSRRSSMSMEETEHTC

[23] = biological target: Serine/threonine-protein phosphatase (Homo sapiens, UniProt Q9BPW0); experiment: PP5 phosphatase inhibitors, dose response, biochemical, fluorescence (AID 2395)
Serine/threonine-protein phosphatase, sequence (Q9BPW0 whole entry): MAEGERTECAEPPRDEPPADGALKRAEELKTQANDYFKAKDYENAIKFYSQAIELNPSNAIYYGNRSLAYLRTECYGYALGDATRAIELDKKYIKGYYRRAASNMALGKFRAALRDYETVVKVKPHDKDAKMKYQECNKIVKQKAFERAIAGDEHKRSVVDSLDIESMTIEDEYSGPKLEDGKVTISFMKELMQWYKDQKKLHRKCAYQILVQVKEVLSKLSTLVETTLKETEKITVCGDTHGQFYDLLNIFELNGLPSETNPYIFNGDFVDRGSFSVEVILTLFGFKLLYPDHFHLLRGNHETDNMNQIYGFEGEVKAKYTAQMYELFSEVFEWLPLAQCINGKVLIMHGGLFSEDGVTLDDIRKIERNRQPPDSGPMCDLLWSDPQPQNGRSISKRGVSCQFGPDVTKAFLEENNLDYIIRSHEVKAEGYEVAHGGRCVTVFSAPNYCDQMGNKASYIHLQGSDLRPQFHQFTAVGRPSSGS

[24] = biological target: Beta-galactosidase (Escherichia coli, UniProt Q8VNN2); experiment: beta-galactosidase enzyme inhibitors and activators, dose response, artefact control for CCR6 antagonist project, biochemical, E. coli enzyme, set 3 (AID 504712); type: functional
Beta-galactosidase, sequence (Q8VNN2 whole entry): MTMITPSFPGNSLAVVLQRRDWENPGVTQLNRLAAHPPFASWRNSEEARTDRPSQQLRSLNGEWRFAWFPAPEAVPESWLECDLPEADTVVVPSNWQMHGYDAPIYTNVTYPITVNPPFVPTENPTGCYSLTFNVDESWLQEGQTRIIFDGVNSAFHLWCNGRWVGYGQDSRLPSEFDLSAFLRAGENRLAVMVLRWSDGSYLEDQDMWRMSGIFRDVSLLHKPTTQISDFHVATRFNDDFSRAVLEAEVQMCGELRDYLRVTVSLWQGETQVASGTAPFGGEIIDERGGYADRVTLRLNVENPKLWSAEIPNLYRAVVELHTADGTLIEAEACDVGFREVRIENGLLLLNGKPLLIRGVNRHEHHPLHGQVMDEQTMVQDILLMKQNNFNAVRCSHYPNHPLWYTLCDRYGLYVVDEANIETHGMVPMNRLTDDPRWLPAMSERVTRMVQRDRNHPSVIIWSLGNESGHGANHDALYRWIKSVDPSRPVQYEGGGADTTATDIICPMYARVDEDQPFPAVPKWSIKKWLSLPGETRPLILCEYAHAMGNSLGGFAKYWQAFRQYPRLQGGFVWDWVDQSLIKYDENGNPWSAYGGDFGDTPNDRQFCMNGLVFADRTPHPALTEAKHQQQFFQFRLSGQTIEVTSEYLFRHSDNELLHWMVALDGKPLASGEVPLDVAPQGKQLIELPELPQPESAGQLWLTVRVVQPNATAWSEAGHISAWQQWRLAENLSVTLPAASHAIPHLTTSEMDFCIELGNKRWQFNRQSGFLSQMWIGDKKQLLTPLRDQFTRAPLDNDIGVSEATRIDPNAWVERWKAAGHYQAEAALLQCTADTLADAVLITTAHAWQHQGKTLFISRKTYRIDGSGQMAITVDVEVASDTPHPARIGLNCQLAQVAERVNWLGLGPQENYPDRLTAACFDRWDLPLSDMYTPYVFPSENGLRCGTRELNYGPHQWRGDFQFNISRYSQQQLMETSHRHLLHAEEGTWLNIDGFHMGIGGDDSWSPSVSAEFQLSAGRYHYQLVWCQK

[25] = tested on: A-375; experiment: A375 melanoma cell viability reduction, dose response, counter-screen for MITF modulator project, cherry-pick samples, set 2 (AID 540335); type: functional, cell-based; conditions: Homo sapiens
[26] = biological target: T4, Carboxy-terminal domain RNA polymerase II polypeptide A small phosphatase 1 (Homo sapiens, UniProt Q9GZU7); experiment: inhibitors of CTDSP1, concentration-response testing, biochemical assay, absorbance-based, actives from ultra-high-throughput screening (AID 540297); type: functional
T4 sequence (Q9GZU7 whole entry): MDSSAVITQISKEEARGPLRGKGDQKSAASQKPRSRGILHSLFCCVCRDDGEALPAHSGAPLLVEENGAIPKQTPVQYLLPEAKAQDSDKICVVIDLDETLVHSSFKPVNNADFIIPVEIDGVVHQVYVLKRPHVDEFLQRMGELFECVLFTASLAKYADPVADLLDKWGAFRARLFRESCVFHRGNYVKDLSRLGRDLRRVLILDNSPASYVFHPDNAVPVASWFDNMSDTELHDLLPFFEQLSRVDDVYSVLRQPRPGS

[27] = biological target: Induced myeloid leukemia cell differentiation protein Mcl-1 (Homo sapiens, UniProt Q07820); experiment: MCL1-BIM BH3 interaction inhibitors, dose response, biochemical, fluorescence polarization, BIM-BH3 peptide, 1536-well (AID 2217)
Induced myeloid leukemia cell differentiation protein Mcl-1, sequence (Q07820 whole entry): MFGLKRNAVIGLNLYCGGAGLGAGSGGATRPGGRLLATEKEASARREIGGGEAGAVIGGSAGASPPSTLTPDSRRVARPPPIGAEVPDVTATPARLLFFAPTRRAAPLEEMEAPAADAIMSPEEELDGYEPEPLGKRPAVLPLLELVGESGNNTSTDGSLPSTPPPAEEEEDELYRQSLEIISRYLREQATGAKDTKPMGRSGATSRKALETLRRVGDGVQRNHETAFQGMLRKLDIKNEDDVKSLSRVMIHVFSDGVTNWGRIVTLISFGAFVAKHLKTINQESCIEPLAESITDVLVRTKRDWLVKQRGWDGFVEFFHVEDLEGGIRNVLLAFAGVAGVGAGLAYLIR

[28] = biological target: T5, Protein Tat (Human immunodeficiency virus type 1 group M subtype B (isolate HXB2)(HIV-1), UniProt P04608); type: functional;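 note: tat binding to TAR RNA read out by fluorescence polarization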
T5 sequence (P04608 whole entry): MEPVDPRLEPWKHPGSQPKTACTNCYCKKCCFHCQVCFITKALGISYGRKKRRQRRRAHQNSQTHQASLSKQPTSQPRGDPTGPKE

[29] = biological target: Bcl-2-like protein 1 (Homo sapiens, UniProt Q07817); experiment: BCL-XL inhibitors, dose response, selectivity assay for MCL1 inhibitor project, biochemical, fluorescence polarization, 1536-well (AID 2218)
Bcl-2-like protein 1, sequence (Q07817 whole entry): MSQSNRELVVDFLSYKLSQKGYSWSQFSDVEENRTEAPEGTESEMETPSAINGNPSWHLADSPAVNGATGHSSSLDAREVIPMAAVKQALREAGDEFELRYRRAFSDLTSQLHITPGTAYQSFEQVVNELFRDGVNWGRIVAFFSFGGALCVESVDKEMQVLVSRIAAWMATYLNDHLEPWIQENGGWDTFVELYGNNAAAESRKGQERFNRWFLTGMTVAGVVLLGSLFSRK

[30] = biological target: Procathepsin L (Homo sapiens, UniProt P07711); experiment: cathepsin L inhibitors, dose response, counter-screen for M1/M17 aminopeptidase inhibitor project, biochemical, QFRET, 1536-well (AID 2214)
Procathepsin L, sequence (P07711 whole entry): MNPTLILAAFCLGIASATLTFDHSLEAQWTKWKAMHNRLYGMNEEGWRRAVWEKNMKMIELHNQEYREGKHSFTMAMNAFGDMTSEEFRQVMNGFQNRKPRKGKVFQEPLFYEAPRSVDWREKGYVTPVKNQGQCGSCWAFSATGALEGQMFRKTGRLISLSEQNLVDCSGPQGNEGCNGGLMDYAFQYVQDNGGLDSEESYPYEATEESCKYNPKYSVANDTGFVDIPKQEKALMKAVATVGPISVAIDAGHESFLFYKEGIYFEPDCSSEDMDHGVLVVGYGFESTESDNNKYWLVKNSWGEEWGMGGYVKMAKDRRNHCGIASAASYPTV

[31] = biological target: T6, Aspartyl aminopeptidase (Plasmodium falciparum 3D7, UniProt Q8I2J3); experiment: Counterscreen for inhibitors of M1 and M17 aminopeptidases: QFRET-based biochemical high throughput dose response assay for inhibitors of the Plasmodium falciparum M18 Aspartyl Aminopeptidase (PFM18AAP). [Related PubChem assays: 1619 (Screening assay (M17LAP inhibitors).), 1445 (Screening assay (M1AAP inhibitors).)]
T6 sequence (Q8I2J3 whole entry): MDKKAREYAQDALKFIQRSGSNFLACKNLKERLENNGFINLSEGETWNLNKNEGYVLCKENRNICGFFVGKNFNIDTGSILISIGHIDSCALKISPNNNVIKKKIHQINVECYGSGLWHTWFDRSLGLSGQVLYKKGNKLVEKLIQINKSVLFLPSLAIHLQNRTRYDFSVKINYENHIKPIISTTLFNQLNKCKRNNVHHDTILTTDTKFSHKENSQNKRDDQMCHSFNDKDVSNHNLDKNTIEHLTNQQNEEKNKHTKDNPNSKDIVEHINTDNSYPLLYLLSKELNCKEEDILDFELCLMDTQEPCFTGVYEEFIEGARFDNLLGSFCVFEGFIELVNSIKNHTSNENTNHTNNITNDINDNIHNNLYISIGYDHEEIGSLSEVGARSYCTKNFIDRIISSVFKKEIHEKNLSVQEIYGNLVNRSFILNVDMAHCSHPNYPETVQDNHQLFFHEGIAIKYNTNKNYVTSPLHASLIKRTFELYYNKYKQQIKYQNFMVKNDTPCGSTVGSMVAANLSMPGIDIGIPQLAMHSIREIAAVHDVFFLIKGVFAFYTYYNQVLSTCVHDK

[32] = biological target: T7, Leucine aminopeptidase (Plasmodium falciparum 3D7, UniProt Q8IL11); experiment: P. falciparum M17LAP inhibitors, primary screen, biochemical, fluorogenic H-Leu-NHMec substrate, 1536-well (AID 1619); type: functional
T7 sequence (Q8IL11 whole entry): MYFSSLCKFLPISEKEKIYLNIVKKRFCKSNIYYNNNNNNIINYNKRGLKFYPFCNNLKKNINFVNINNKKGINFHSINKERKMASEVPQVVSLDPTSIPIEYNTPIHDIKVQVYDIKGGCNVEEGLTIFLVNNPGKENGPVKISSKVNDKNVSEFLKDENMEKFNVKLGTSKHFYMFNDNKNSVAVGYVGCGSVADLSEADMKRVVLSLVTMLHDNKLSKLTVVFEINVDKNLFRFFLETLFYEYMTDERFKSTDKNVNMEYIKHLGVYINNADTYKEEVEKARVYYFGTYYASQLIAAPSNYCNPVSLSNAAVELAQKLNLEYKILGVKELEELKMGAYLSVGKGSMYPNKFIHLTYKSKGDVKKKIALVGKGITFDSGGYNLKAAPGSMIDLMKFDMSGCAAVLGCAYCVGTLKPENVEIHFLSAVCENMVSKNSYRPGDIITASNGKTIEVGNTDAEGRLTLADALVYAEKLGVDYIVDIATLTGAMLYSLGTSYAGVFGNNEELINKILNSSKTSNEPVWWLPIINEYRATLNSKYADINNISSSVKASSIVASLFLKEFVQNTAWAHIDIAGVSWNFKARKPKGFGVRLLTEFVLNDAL

[33] = biological target: fMet-Leu-Phe receptor (Homo sapiens, UniProt P21462); experiment: FPR ligands, dose response (AID 519); type: functional
fMet-Leu-Phe receptor, sequence (P21462 whole entry): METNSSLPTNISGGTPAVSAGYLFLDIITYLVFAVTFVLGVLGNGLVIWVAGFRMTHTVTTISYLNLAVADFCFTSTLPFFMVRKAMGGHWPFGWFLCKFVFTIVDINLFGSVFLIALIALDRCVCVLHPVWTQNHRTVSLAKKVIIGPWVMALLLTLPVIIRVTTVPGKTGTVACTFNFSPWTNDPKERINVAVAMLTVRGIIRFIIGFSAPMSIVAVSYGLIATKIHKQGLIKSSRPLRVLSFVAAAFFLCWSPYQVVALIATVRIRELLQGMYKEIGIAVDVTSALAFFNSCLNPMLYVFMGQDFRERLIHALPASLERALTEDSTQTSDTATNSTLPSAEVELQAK

NADPH oxidase 1, sequence (Q9Y5S8 whole entry): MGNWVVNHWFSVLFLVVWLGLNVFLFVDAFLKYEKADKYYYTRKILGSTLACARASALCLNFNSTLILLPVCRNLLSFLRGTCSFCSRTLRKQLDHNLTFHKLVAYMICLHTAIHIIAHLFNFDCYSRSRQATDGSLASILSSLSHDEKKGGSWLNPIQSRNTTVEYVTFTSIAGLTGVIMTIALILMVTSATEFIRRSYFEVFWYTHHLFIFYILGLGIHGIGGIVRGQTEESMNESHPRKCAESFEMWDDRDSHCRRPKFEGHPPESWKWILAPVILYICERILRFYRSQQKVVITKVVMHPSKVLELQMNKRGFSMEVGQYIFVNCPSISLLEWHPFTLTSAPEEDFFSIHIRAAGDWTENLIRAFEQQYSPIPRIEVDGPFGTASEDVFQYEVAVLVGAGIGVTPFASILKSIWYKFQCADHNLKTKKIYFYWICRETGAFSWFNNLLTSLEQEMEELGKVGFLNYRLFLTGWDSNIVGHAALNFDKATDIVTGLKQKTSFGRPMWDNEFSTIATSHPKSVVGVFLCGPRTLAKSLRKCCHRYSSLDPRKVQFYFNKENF

SMILES: COc1cc(-c2nc3c4ccccc4c4ccccc4c3[nH]2)ccc1O
- IC50 [1]: 1.15 µM (active)

SMILES: Oc1c(CN2CCOCC2)cc(COCc2ccccc2)c2cccnc12
- EC50 [2]: 1.26 µM (active)
- AC50 [3]: 2.13 µM (active)
- AC50 [4]: 3.15 µM (active)
- EC50 [5]: > 160 µM (inactive)
- EC50 [6]: 4.24 µM (active)
- EC50 [7]: 6.33 µM (active)
- AC50 [8]: 1.28 µM (active)
- EC50 [9]: 4.97 µM (active)
- EC50 [10]: 36.3 µM (active)
- EC50 [11]: 5.43 µM (active)
- EC50 [12]: > 350 µM (not active)
- IC50 [13]: 4.95 µM (active)
- EC50 [14]: 1.28 µM (active)
- IC50 [15]: 25.7 µM (active)
- AC50 [16]: 2.39 µM (active)
- EC50 [17]: 28 µM (active)

SMILES: O=C1C(Cl)=C(N2CCN(c3ccccc3[N+](=O)[O-])CC2)C(=O)c2ccccc21
- EC50 [18]: 4.51 µM (active)
- EC50 [19]: 5.82 µM (active)
- EC50 [20]: 0.734 µM (inconclusive)
- IC50 [21]: > 67 µM (not active)
- AC50 [22]: 3.59 µM (active)
- IC50 [23]: 29.5 µM (not active)
- IC50 [24]: > 66.6 µM (inactive)
- AC50 [25]: 15.6 µM (active)

SMILES: Cc1ccc(NC(=O)c2cc(-c3ccc(C)o3)nc3ccccc23)nc1
- IC50 [26]: 4.78 µM (active)
- IC50 [27]: > 109 µM (not active)
- IC50 [28]: > 100 µM (active)
- IC50 [29]: > 109 µM (not active)

SMILES: CCOC(=O)c1c(NC(=O)C2C3CCC(O3)C2C(=O)O)sc(C)c1-c1ccc(C)cc1 (stereo not drawn)
- IC50 [30]: > 59.6 µM (not active)
- IC50 [31]: > 73.5 µM (not active)
- IC50 [32]: 6.69 µM (active)
- Ki [33]: 63.3 µM (inactive)
